Laboratory results published in EP0212404A1, “7-oxo-4-thia-1-azabicyclo [3.2.0] hept-2-ene derivatives” (HOECHST AKTIENGESELLSCHAFT, priority 1985, dated 1987).
Values after ≈ are worked out from the molar mass of the structure shown. Like-named read-outs stand apart in the source and are kept apart here.

Experiments:
Experiment in all cases: agar dilution test (MIC)
Assay type in all cases: cell-based
Bac.subt. ATCC6633 = conditions: Mueller Hinton agar, 16 to 18 hours at 37°C, read-out: Minimum Inhibitory Concentration (MIC)
Method: (§1) The antimicrobial activity was determined by measuring the Minimum Inhibitory Concentration (MIC). The MIC of the compounds was determined by a standard test, the "agar dilution test" according to Lorian (Antibiotics in Laboratory Medicine, Williams and Wilkins, Baltimore/London 1980) as follows:
(§2) A two-fold decreasing concentration series of each compound was prepared in Petri dishes containing 15 ml of Mueller Hinton agar (Difco). One Petri dish containing only the Mueller Hinton agar served as control for bacterial growth. Each Petri dish was inoculated with a multi-point inoculator (Denley), which transferred 0.6µl of a 1:100 diluted 18 hours culture of the appropriate test bacterium. After 16 to 18 hours of incubation at 37°C the Petri dishes were examined for growth of bacteria. The lowest concentration of the compound which causes complete inhibition of growth is taken as the MIC except that the growth of a single colony or a haze is not taken as evidence of qrowth.

E.coli 055 = conditions: Escherichia coli, Mueller Hinton agar, 16 to 18 hours at 37°C, read-out: Minimum Inhibitory Concentration (MIC)
Method: as §1, §2

E.coli 1507E = conditions: Escherichia coli, read-out: Minimum Inhibitory Concentration (MIC)
Method: as §1, §2

E.coli DC0 = conditions: Escherichia coli, Mueller Hinton agar, 16 to 18 hours at 37°C, read-out: Minimum Inhibitory Concentration (MIC)
Method: as §1, §2

E.coli DC2 = conditions: Escherichia coli, Mueller Hinton agar, 16 to 18 hours at 37°C, read-out: Minimum Inhibitory Concentration (MIC)
Method: as §1, §2

E.coli KN126 = conditions: Escherichia coli, Mueller Hinton agar, 16 to 18 hours at 37°C, read-out: Minimum Inhibitory Concentration (MIC)
Method: as §1, §2

E.coli TEM = conditions: Escherichia coli, read-out: Minimum Inhibitory Concentration (MIC)
Method: as §1, §2

Ent.cloacae 1321E = conditions: Enterobacter cloacae, read-out: Minimum Inhibitory Concentration (MIC)
Method: as §1, §2

Ent.cloacae P99 = conditions: Enterobacter cloacae, Mueller Hinton agar, 16 to 18 hours at 37°C, read-out: Minimum Inhibitory Concentration (MIC)
Method: as §1, §2

Kl.aerog. 1082E = conditions: Mueller Hinton agar, 16 to 18 hours at 37°C, read-out: Minimum Inhibitory Concentration (MIC)
Method: as §1, §2

Kl.aerog. 1522E = conditions: read-out: Minimum Inhibitory Concentration (MIC)
Method: as §1, §2

Staph.aureus 285 = conditions: Staphylococcus aureus, Mueller Hinton agar, 16 to 18 hours at 37°C, read-out: Minimum Inhibitory Concentration (MIC)
Method: as §1, §2

Staph.aureus 503 = conditions: Staphylococcus aureus, Mueller Hinton agar, 16 to 18 hours at 37°C, read-out: Minimum Inhibitory Concentration (MIC)
Method: as §1, §2

Staph.aureus SG511 = conditions: Staphylococcus aureus, Mueller Hinton agar, 16 to 18 hours at 37°C, read-out: Minimum Inhibitory Concentration (MIC)
Method: as §1, §2

Str.faecium D = conditions: Enterococcus faecium, read-out: Minimum Inhibitory Concentration (MIC)
Method: as §1, §2

Str.pyogenes 308A = conditions: Streptococcus pyogenes, Mueller Hinton agar, 16 to 18 hours at 37°C, read-out: Minimum Inhibitory Concentration (MIC)
Method: as §1, §2

Str.pyogenes 77A = conditions: Streptococcus pyogenes, Mueller Hinton agar, 16 to 18 hours at 37°C, read-out: Minimum Inhibitory Concentration (MIC)
Method: as §1, §2

Salm.typh. MZII = conditions: Mueller Hinton agar, 16 to 18 hours at 37°C, read-out: Minimum Inhibitory Concentration (MIC)
Method: as §1, §2

[1] = E.coli 1507E, Mueller Hinton agar, 16 to 18 hours at 37°C
[2] = Kl.aerog. 1522E, Mueller Hinton agar, 16 to 18 hours at 37°C
[3] = Str.faecium D, Mueller Hinton agar, 16 to 18 hours at 37°C

SMILES | MIC (Bac.subt. ATCC6633) [µg/mL] | MIC (E.coli 055) [µg/mL] | MIC (E.coli 1507E; [1]) [µg/mL] | MIC (E.coli DC0) [µg/mL] | MIC (E.coli DC2) [µg/mL] | MIC (E.coli KN126) [µg/mL] | MIC (E.coli TEM) [µg/mL] | MIC (Ent.cloacae P99) [µg/mL] | MIC (Kl.aerog. 1082E) [µg/mL] | MIC (Kl.aerog. 1522E; [2]) [µg/mL] | MIC (Staph.aureus 285) [µg/mL] | MIC (Staph.aureus 503) [µg/mL] | MIC (Staph.aureus SG511) [µg/mL] | MIC (Str.faecium D; [3]) [µg/mL] | MIC (Str.pyogenes 308A) [µg/mL] | MIC (Str.pyogenes 77A) [µg/mL] | MIC (Ent.cloacae 1321E; 1321E) [µg/mL] | MIC (Salm.typh. MZII) [µg/mL] | MIC (E.coli 1507E; 1507E) [µg/mL] | MIC (Kl.aerog. 1522E) [µg/mL] | further results
C[C@@H](O)[C@H]1C(=O)N2C(C(=O)O)=C(c3cccc(C(N)=O)c3)S[C@H]12 [Example 3-CONH2, 5R,3-(3-aminocarbonylphenyl)-6S-(1R-hydroxyethyl)-7-oxo-4-thia-l-azabicyclo[3.2.0]hept-2-ene-2-carboxylate] | 0.05 (≈ 0.15 µM) | 0.1 (≈ 0.299 µM) | 0.19 (≈ 0.568 µM) | 0.39 (≈ 1.17 µM) | 0.1 (≈ 0.299 µM) | 0.1 (≈ 0.299 µM) | 0.19 (≈ 0.568 µM) | 1.56 (≈ 4.67 µM) | 0.1 (≈ 0.299 µM) | 0.19 (≈ 0.568 µM) | 0.1 (≈ 0.299 µM) | 0.1 (≈ 0.299 µM) | 0.05 (≈ 0.15 µM) | 1.56 (≈ 4.67 µM) | 0.006 (≈ 0.0179 µM) | 0.013 (≈ 0.0389 µM) | – | – | – | – | MIC (Ent.cloacae 1321E; Ent.cloacae 1321E, Mueller Hinton agar, 16 to 18 hours at 37°C): 0.1 µg/mL (≈ 0.299 µM)
CSc1ccc(C2=C(C(=O)O)N3C(=O)[C@H]([C@@H](C)O)[C@H]3S2)cc1 [Example 4-SCH3] | 0.1 (≈ 0.296 µM) | 6.25 (≈ 18.5 µM) | 25 (≈ 74.1 µM) | 50 (≈ 148 µM) | 0.78 (≈ 2.31 µM) | 12.5 (≈ 37 µM) | 25 (≈ 74.1 µM) | 50 (≈ 148 µM) | 0.78 (≈ 2.31 µM) | 25 (≈ 74.1 µM) | 0.19 (≈ 0.563 µM) | 0.19 (≈ 0.563 µM) | – | 3.13 (≈ 9.28 µM) | < 0.05 | < 0.05 | 12.5 (≈ 37 µM) | 12.5 (≈ 37 µM) | – | – | –
C[C@@H](O)[C@H]1C(=O)N2C(C(=O)O)=C(c3ccc(F)cc3)S[C@H]12 [Example 4-F] | 0.1 (≈ 0.323 µM) | 1.56 (≈ 5.04 µM) | – | 25 (≈ 80.8 µM) | 1.56 (≈ 5.04 µM) | 6.25 (≈ 20.2 µM) | 6.25 (≈ 20.2 µM) | 25 (≈ 80.8 µM) | 1.56 (≈ 5.04 µM) | 12.5 (≈ 40.4 µM) | 0.19 (≈ 0.614 µM) | 0.19 (≈ 0.614 µM) | 0.19 (≈ 0.614 µM) | – | < 0.05 | < 0.05 | 3.13 (≈ 10.1 µM) | 3.13 (≈ 10.1 µM) | 6.25 (≈ 20.2 µM) | – | MIC (Str.faecium D): 3.13 µg/mL (≈ 10.1 µM)
COc1ccc(C2=C(C(=O)O)N3C(=O)[C@H]([C@@H](C)O)[C@H]3S2)cc1 [Example 4-OCH3] | 0.1 (≈ 0.311 µM) | 3.13 (≈ 9.74 µM) | – | 25 (≈ 77.8 µM) | 0.78 (≈ 2.43 µM) | 12.5 (≈ 38.9 µM) | 12.5 (≈ 38.9 µM) | 100 (≈ 311 µM) | 0.78 (≈ 2.43 µM) | – | 0.19 (≈ 0.591 µM) | 0.19 (≈ 0.591 µM) | 0.1 (≈ 0.311 µM) | 3.13 (≈ 9.74 µM) | < 0.05 | < 0.05 | 12.5 (≈ 38.9 µM) | 6.25 (≈ 19.4 µM) | 12.5 (≈ 38.9 µM) | 12.5 (≈ 38.9 µM) | –
C[C@@H](O)[C@H]1C(=O)N2C(C(=O)O)=C(c3ccc(Cl)cc3)S[C@H]12 [Example 4-Cl] | 0.05 (≈ 0.153 µM) | 3.13 (≈ 9.61 µM) | – | 25 (≈ 76.7 µM) | 0.39 (≈ 1.2 µM) | 12.5 (≈ 38.4 µM) | 12.5 (≈ 38.4 µM) | 50 (≈ 153 µM) | 0.78 (≈ 2.39 µM) | – | 0.1 (≈ 0.307 µM) | 0.1 (≈ 0.307 µM) | 0.05 (≈ 0.153 µM) | 1.56 (≈ 4.79 µM) | < 0.05 | < 0.05 | 6.25 (≈ 19.2 µM) | 6.25 (≈ 19.2 µM) | 12.5 (≈ 38.4 µM) | 12.5 (≈ 38.4 µM) | –
